Key:
[1] = tested on: human Atg3 deletion mutants; test: GST pulldown with Atg3 deletion mutants; type: binding; details: GST-Atg3, N-terminal and C-terminal regions
Description: The overall structure of yeast Atg3 has a unique hammer-like shape with the N-terminal and C-terminal regions discretely responsible for Atg7 and Atg8 (equivalent to mammalian LC3) binding, respectively. (Yamada et al. (2007) J. Biol. Chem. 282:8036-8043). Based on the structure of yeast Atg3, human Atg3 deletion mutants fused with a GST mammalian expression vector were constructed: GST-Atg31-93, GST-Atg3193-268, GST-Atg3268-315, and GST-Atg3193-315-GST-tagged hATG3 and hATG3 mutant genes were cloned into a pcDNA5/FRT/TO derivative encoding an N-terminal GST epitope tag between the BamHI and NotI sites. GST pulldown with Flag-KSHV vFLIP, Flag-cFLIPs, Flag-MCV 159L, or Flag-HVS vFLIP along with GST-Atg3, GST-Atg3 N-terminal region (Nt), or GST-Atg3 C-terminal region (Ct) was performed as described above and was followed by immunoblotting with aFlag or aGST.

NIH3T3 cells = test: GFP-LC3 autophagy with ectopic FLIP expression; type: cell-based; details: Hank's solution 4 hr or 2 μM rapamycin 3 hr
Method: At 12-16 hours post-transfection with GFP-LC3, NIH3T3 cells containing vector or the FLIP gene were treated with Hank's solution for 4 hr or with 2 μM rapamycin for 3 hr. Subsequently, GFP-LC3 was detected using an inverted fluorescence microscope, autophagy was quantified as means (±SD) of the combined results from three independent experiments, and autophagosomes were visualized through scanning electron microscopy. NIH3T3-Vector, NIH3T3-KSHV-vFLIP, and NIH3T3-MCV-159L cells were treated with Hank's solution for 4 hr, followed by immunoblotting with anti-LC3 and anti-βTubulin. At 12-16 hr post-transfection with GFP-LC3, TREX-BCBL-Vector and TREX-BCBL-vFLIP cells were treated with doxycycline for 24 hr, followed by incubation with 2 μM rapamycin for an additional 12 hr. The detection of GFP-LC3 and autophagy levels was performed as described above, vFLIP expression was detected by IB with anti-Flag, and autophagosomes were visualized by scanning EM. TNF-induced apoptosis and NF-κB luciferase assay were performed as previously described (Matta and Chaudhary (2004) Proc. Natl. Acad. Sci. USA 101:9399-9404).
The anti-autophagic properties of vFLIP, as well as the related cFLIP, HSV, and MCV, were evaluated by ectopic expression of HVS, vFLIP, MCV 159L, and the short form of cFLIP (cFLIPs) in NIHI3T3 cells. DNA fragments corresponding to the coding sequences of the KSHV-vFLIP, human cFLIPs, MCV-MC159, and HVS-vFLIP genes were amplified via polymerase chain reaction and subcloned into pcDNA5/FRT/TO between the AflII and BamHI restriction sites or pEF-IRES-puro between the AflII and XbaI sites. Starvation studies were carried out by transfecting cells containing vector or the FLIP gene with GFP-LC3, then 12-16 h post-transfection, treating the cells with Hank's solution for 4 hr or with 2 μM rapamycin for 3 hr. Autophagy was assessed by GFP-LC3 redistribution using an inverted fluorescence microscope, quantifying autophagy as means (±SD) of the combined results from three independent experiments. Autophagosomes were visualized through scanning electron microscopy. […]

NF-κB = NF-κB luciferase reporter assay; type: cell-based; details: NIH3T3 cells, 48 hr post-transfection
Description: To determine the effects of the interactions of vFLIP with FADD, IKKαβγ, and 14-3-3σ on anti-autophagy activity, NIH3T3 cells stably expressing various vFLIP mutants were constructed: m14-3-3σ, which lacks 14-3-3σ-binding; mTRAF2, which lacks TRAF2-binding (Guasparri et al. (2006) EMBO Rep. 7:114-119); 67AAA and 58AAA, which have reduced NF-κB activation (Matta and Chaudhary (2004) Proc. Natl. Acad. Sci. USA 101:9399-9404); and mFADD, which lacks FADD-binding (Yang et al. (2005) Mol. Cell. 20:939-949). These cells were treated with either cyclohexamide (CHX) alone or CHX and TNF-α for 12 hr or with 2 μM rapamycin for 3 hr. Propidium iodide (PI) staining and flow cytometry analysis were performed to determine apoptosis levels. Alternatively, NIH3T3 cells containing vector, KSHV vFLIP, or its mutants were transfected with an NF-κB-luciferase reporter construct and a control renilla luciferase plasmid, pRL-SV40 (Promega). At 48 hr post-transfection, luciferase activity was measured with a luminometer using a dual luciferase assay kit (Promega) and normalized with renilla luciferase activity to determine transfection efficiency. GFP-LC3 puncta were detected using an inverted fluorescence microscope and the autophagy levels quantified as means (±SD) of the results from three independent experiments.

Atg3 = biological target: T1, Atg3 (Homo sapiens, UniProt Q9NT62); test: Co-immunoprecipitation of FLIP with Atg3 in HEK293T cells; type: binding; details: endogenously and exogenously expressed Atg3
T1 construct: GFP (alternative construct GFP-Atg3, not on the same molecule as GST); expressed in transfected cells; host or cells: HEK293T
T1 sequence (Q9NT62 whole entry): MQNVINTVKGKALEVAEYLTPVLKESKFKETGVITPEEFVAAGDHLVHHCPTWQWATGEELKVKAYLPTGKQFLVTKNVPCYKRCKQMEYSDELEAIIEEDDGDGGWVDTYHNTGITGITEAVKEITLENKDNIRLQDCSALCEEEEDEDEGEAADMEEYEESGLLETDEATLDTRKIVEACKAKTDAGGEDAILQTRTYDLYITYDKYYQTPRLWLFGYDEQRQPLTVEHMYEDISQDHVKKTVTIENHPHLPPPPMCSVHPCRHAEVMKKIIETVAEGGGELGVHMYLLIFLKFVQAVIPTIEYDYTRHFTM
Method: The ability of FLIP to bind to Atg3 was evaluated by co-immunoprecipitation assay. HEK293T cells were transfected with Flag-vFLIP and/or GFP-Atg3 or Flag-vFLIP and/or GST-Atg3, and at 48 hr post-transfection, cells were harvested and lysed in an NP40 buffer supplemented with complete protease inhibitor cocktail (Roche). After pre-clearing with protein A/G agarose beads for 1 hr at 4° C., whole-cell lysates were used for immunoprecipitation with αFlag, αGFP, or GST. Generally, 1-4 μg of the antibody was added to 1 ml of the cell lysate and incubated at 4° C. for 8 to 12 hr. The immunoprecipitates were then washed extensively with a lysis buffer and eluted by boiling them with an SDS loading buffer for 5 min. Following immunoprecipitation, samples were treated to immunoblot using αAtg3 (1:500) (Novus).

In the case of “KSHV vFLIP: viral FLICE-like inhibitor protein of Kaposi's sarcoma-associated herpesvirus, expressed in cells”, the “Atg3 region bound (GST pulldown)” value [1] is reported as “independently bound either the aa193-268 or aa268-315 region of the C-terminal of Atg3”, the “suppression of starvation- and rapamycin-induced autophagy” value (NIH3T3 cells) is reported as “strongly suppressed starvation- and rapamycin-induced autophagy” and the NF-κB activation (NF-κB) is reported as “carried out NF-κB activation”. The “interaction with Atg3 (co-immunoprecipitation)” value (Atg3) was “strongly interacted with endogenously and exogenously expressed Atg3, even in the presence of a 1M NaCl salt concentration”.
